Measurements taken from US11572590B2, “Methods for evaluating tumor cell spheroids using 3D microfluidic cell culture device” (Dana-Farber Cancer Institute, Inc., priority 2017, dated 2023).
Where two headings read alike, the source gives them in different places.

Tests used:
Experiment in all cases: SelectScreen Kinase Profiling, single point inhibition and IC50 for off-target kinases
Format in all cases: biochemical
off-target kinases [1] = molecular target: off-target kinases (Homo sapiens, UniProt P08581); details: MET (cMet), ZLYTE, ATP Km app
Sequence of off-target kinases (Homo sapiens, UniProt P08581) (P08581 25-1390): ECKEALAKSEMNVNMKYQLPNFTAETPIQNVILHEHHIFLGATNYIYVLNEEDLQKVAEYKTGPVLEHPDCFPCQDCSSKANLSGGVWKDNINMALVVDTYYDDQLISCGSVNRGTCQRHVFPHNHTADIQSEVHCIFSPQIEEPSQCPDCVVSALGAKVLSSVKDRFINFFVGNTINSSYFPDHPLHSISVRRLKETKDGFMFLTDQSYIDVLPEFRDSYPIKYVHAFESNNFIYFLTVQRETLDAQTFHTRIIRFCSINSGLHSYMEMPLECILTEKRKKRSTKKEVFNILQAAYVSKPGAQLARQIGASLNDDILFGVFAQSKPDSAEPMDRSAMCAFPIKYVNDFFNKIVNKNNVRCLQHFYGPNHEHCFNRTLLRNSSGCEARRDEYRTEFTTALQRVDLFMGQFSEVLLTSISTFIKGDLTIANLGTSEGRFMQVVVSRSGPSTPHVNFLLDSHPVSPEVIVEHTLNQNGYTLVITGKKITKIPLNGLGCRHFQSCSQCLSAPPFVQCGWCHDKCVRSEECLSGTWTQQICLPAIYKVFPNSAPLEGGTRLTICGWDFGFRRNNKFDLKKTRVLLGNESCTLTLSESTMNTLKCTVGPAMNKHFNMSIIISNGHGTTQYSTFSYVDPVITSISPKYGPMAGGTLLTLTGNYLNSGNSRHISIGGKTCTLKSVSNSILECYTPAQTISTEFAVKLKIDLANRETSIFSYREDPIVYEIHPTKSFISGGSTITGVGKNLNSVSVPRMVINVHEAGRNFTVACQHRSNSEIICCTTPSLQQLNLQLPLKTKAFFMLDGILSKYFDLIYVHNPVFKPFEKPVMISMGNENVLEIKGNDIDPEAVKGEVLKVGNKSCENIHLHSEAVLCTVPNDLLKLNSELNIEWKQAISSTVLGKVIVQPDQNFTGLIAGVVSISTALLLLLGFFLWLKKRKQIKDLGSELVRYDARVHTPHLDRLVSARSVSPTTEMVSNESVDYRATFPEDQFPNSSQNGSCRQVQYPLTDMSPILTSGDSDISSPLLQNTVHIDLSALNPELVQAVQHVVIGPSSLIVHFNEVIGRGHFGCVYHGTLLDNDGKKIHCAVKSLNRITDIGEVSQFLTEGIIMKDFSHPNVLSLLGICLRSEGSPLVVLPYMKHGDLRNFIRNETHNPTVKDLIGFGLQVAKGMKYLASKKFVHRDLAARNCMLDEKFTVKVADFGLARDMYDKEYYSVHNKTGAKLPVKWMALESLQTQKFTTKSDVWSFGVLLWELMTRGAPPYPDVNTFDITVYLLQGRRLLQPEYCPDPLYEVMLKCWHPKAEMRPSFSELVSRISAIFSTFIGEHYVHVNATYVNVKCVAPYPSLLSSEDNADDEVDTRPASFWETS

off-target kinases [2] = molecular target: T1, off-target kinases (Homo sapiens, UniProt Q9NR20)
T1 sequence (Q9NR20 1-520): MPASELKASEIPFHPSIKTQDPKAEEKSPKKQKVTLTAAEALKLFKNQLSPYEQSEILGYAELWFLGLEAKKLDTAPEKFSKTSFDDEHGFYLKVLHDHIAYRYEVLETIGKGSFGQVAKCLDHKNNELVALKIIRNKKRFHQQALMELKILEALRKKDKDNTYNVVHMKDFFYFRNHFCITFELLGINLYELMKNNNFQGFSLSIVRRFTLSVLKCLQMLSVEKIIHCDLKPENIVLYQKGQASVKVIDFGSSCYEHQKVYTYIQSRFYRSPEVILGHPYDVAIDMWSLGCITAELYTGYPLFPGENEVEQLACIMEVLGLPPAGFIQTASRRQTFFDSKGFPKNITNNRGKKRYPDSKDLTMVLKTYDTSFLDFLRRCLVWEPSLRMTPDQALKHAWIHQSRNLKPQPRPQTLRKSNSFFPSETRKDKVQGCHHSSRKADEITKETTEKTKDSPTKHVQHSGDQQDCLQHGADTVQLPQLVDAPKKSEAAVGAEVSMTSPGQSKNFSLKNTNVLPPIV

off-target kinases [3] = molecular target: off-target kinases (Homo sapiens, UniProt P00533, T790M); details: EGFR (ErbB1) T790M, mutant y, ZLYTE, ATP Km app
Sequence of off-target kinases (Homo sapiens, UniProt P00533, T790M) (P00533 25-1210 T790M): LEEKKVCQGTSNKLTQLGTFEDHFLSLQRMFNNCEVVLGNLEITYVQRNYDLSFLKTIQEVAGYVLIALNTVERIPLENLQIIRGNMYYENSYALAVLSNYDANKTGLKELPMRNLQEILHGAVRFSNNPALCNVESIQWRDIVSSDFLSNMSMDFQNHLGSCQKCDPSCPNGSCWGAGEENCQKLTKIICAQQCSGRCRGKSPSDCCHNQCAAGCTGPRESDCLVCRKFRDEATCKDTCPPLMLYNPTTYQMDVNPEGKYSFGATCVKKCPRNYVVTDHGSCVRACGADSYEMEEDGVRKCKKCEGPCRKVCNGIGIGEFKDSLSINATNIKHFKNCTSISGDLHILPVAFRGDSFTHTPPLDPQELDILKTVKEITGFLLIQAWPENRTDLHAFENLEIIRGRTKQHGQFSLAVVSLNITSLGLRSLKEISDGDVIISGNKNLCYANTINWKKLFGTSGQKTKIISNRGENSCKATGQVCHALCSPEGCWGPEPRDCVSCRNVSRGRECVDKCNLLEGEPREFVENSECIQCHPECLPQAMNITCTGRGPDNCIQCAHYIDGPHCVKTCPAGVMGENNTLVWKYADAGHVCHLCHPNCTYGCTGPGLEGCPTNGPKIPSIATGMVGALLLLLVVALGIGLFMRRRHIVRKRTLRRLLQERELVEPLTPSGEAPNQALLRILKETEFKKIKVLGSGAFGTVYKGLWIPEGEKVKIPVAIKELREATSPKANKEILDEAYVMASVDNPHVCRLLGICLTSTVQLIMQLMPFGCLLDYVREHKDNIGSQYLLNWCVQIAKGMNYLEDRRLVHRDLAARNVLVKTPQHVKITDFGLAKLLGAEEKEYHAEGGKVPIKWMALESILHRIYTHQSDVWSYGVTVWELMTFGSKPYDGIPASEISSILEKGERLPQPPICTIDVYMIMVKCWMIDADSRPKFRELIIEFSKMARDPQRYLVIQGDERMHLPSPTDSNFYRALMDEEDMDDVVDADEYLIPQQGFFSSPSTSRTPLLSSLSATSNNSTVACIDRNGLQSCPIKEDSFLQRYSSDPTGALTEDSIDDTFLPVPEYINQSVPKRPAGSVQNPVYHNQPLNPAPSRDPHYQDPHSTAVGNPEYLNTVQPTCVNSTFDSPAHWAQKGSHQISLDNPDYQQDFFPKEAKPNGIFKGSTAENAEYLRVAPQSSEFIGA

off-target kinases [4] = molecular target: off-target kinases (Homo sapiens, UniProt Q9NY57); details: STK32B (YANK2), LanthaScreen Binding
Sequence of off-target kinases (Homo sapiens, UniProt Q9NY57) (Q9NY57 whole entry): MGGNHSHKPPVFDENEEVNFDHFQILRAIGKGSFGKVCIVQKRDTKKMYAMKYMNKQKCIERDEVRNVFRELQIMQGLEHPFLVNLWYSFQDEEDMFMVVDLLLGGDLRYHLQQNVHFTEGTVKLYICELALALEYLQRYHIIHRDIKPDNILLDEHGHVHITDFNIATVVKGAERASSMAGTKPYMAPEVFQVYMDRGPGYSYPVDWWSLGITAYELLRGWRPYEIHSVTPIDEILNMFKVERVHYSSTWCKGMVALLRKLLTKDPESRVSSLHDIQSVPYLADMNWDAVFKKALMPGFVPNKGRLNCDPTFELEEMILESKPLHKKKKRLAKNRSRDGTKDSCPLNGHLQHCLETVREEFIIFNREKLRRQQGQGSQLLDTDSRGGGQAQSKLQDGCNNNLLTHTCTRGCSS

off-target kinases [5] = molecular target: off-target kinases (Homo sapiens, UniProt Q9Y6E0); details: STK24 (MST3), ZLYTE, ATP Km app
Sequence of off-target kinases (Homo sapiens, UniProt Q9Y6E0) (Q9Y6E0 whole entry): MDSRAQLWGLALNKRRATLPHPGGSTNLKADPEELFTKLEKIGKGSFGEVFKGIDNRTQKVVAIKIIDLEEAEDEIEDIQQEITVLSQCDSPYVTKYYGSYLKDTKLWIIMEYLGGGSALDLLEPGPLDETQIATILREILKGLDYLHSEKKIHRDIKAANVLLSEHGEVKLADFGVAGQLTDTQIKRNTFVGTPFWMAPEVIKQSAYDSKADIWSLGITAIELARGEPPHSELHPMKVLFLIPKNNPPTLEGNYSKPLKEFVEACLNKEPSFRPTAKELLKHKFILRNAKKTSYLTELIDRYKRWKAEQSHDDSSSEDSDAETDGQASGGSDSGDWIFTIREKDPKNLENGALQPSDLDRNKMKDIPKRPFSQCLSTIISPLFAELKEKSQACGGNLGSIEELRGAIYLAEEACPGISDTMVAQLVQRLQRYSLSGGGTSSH

off-target kinases [6] = molecular target: off-target kinases (Homo sapiens, UniProt Q92918); details: MAP4K1 (HPK1), LanthaScreen Binding
Sequence of off-target kinases (Homo sapiens, UniProt Q92918) (Q92918 whole entry): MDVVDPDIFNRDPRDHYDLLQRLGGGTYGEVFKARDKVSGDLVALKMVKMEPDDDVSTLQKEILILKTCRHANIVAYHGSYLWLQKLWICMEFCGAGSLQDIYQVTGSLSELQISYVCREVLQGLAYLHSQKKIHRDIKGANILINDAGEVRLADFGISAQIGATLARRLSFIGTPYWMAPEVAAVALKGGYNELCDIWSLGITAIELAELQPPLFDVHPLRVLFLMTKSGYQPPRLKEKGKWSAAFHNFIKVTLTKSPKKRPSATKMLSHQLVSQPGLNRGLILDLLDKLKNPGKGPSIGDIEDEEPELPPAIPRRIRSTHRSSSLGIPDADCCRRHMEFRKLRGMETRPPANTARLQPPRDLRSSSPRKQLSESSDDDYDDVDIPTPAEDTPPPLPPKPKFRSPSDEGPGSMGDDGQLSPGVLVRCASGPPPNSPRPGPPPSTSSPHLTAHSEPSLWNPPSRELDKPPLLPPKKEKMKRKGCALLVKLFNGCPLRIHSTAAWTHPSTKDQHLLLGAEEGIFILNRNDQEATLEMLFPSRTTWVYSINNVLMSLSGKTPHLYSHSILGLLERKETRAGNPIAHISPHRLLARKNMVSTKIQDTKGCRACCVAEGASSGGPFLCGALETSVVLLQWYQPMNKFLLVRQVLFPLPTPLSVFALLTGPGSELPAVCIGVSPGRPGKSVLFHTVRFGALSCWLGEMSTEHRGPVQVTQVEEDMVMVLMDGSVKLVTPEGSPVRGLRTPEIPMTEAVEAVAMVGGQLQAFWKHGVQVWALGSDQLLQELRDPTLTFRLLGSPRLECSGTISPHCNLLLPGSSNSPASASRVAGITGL

## N#Cc1cc(-c2ncnc(Nc3ccc(N4CCN(C5COC5)CC4)cc3)n2)ccc1OC1CCOCC1 [Compound 1, 5-(4-((4-(4-(oxetan-3-yl)piperazin-1-yl)phenyl)amino)-1,3,5-triazin-2-yl)-2-((tetrahydro-2H-pyran-4-yl)oxy)benzonitrile]
off-target kinases [1]; read-out: % Inhibition 1
  inhibition: 30%
off-target kinases [1]; read-out: % Inhibition 2
  inhibition: 33%
off-target kinases [1]; read-out: % Inhibition Avg
  inhibition: 31%
off-target kinases [2]; read-out: % Inhibition 1
  inhibition: -2%
off-target kinases [2]; read-out: % Inhibition 2
  inhibition: 0%
off-target kinases [2]; read-out: % Inhibition Avg
  inhibition: -1%
off-target kinases [3]; read-out: % Inhibition 1
  inhibition: 25%
off-target kinases [3]; read-out: % Inhibition 2
  inhibition: 25%
off-target kinases [3]; read-out: % Inhibition Avg
  inhibition: 25%
off-target kinases [4]; read-out: % Inhibition 1
  inhibition: 1%
off-target kinases [4]; read-out: % Inhibition 2
  inhibition: 8%
off-target kinases [4]; read-out: % Inhibition Avg
  inhibition: 5%
off-target kinases [5]; read-out: % Inhibition 1
  inhibition: -5%
off-target kinases [5]; read-out: % Inhibition 2
  inhibition: 8%
off-target kinases [5]; read-out: % Inhibition Avg
  inhibition: 1%
off-target kinases [6]; read-out: % Inhibition 1
  inhibition: 59%
off-target kinases [6]; read-out: % Inhibition 2
  inhibition: 55%
off-target kinases [6]; read-out: % Inhibition Avg
  inhibition: 57%
